Experimental data reported in US11753411B2, “Substituted pyrazolo[1,5-a]pyrimidines as TYK2 pseudokinase ligands” (Ventyx Biosciences, Inc., priority 2019, dated 2023).

System: IFN-a/Jak1 Tyk2
Assay: Co-stimulation assay in lysed whole blood: IFNa (JAK1/TYK2) stimulated STAT1 phosphorylation
Format: cell-based
Conditions: 100 ng/mL IFNa (with 10 ng/mL GM-CSF), pSTAT by flow cytometry
Experimental: Example 12: Co-Stimulation Assay in Lysed Whole Blood; JAK2: GM-CSF Stimulated STAT5 Phosphorylation and JAK1/TYK2 Stimulated STAT1 Phosphorylation Assay
Human Blood Lysis Using Abcam's RBC Lysis Buffer
Dilute RBC lysis buffer to 1× in distilled water. Add 2 mL blood to 38 mL of 1×RBC-lysis buffer. Incubate for 15 mins at RT, in dark. Spin at 300 g, 5 mins, to collect the pellet. Re-lyse if necessary. Re-suspend pellet in 5 mL of cRPMI.
Compound and Cytokine Treatment
Aliquot 80 μL of lysed human blood in to wells of 96 deep-well plate. Add 10 μl of (10× conc.) of different concentrations of compounds to all wells except controls (unstained and unstimulated) and mix it with the help of 100 uL multichannel. Add 10 uL of RPMI media in controls. For dilution of compounds and dilution range please refer Appendix. Incubate on water bath or CO2 incubator for 1 hour at 37° C. Add 10 μl of (10× conc.) of cytokine mix (GM-CSF and IFNa) (final conc.10 ng/mL of GM-CSF and 100 ng/mL of IFNa) to each well except unstimulated and unstained controls and incubate further for 20 minutes on water bath at 37° C.
Add 900 μL of prewarmed 1× Fix/Lyse solution (Appendix) and mix it properly using 1000 μl multichannel, incubate further on water bath at 37° C. for 10 minutes (which includes time of addition). Centrifuge at 800×g for 5 minutes at 40° C.; remove 900 uL of supernatant and add 900 μL of 1×PBS. Centrifuge at 800×g for 5 minutes at 40° C., remove 900 μL of supernatant. Wash one more time with 900 μL of PBS (optional) and resuspend pellets in 100 uL of PBS.
Disrupt the pellet by gentle tapping and resuspend in 1000 μL of BD Phosflow Perm Buffer III and incubate plate on ice for 30 minutes. Centrifuge plate at 800×g for 5 minutes at 40° C. Wash two more times with 1000 μL of BD Pharmingen Stain Buffer.
Disrupt the pellet by gentle tapping. Resuspend pellets in 100 uL of Stain Buffer and add 5 μL of pSTAT5_AF488 Ab and 5 uL of pSTAT_PE in all wells except unstained control and mix properly using 200 μl multichannel, incubate overnight at […]. Add 900 μL of wash buffer and centrifuge at 1800 rpm for 3 minutes at 40° C. Wash one more time with 1000 μL of BD Pharmingen Stain Buffer. Finally resuspend the pellet in 300 uL of BD Pharmingen Stain Buffer. Transfer the cells to 96-well v-bottom plate and acquire the cells in Beckman Coulter CytExpert. Acquiring cells in Flow Cytometer: Keep the threshold value to 250 and cell concentration should not exceed 100-500 cells/μL. Acquire at least 5,000-10,000 cells.
RPMI 1640 Complete Medium: RPMI 1640 media+10% FBS.
Cytokine dilution: 1) GM-CSF Stock at 100 ug/mL. Prepare an intermediate dilution of 1 ug/mL by adding 2 uL of stock into 198 uL of cRPMI. Further dilute to 100 ng/mL by adding 100 uL of the intermediate stock to 900 uL of cRPMI. 2) IFNa Stock at 200 ug/mL. Dilute IFNa stock 1:200 by adding 5 uL of stock into the 1000 uL of 100 ng/mL GM-CSF working stock as above to give a combined working stock of 1000 ng/mL of IFNa and 100 ng/mL GM-CSF (10×). Keep it on ice until used.
Lyse/Fix buffer preparation: Dilute 5× Lyse/Fix buffer to 1× using MQ water and keep at 37° C. until used.
BD Phosflow perm buffer III: Keep on ice/fridge.

IC50 (Homo sapiens, 20 min) [nM] | IC50 (lysed human whole blood, 20 minutes) [nM] | Compound
< 1000 | – | CNC(=O)Nc1cnn2c(NC)cc(Nc3cc(C)cc4c3OCCO4)nc12 [Compound 78, 1-methyl-3-(5-((7-methyl-2,3-dihydrobenzo[b][1,4]dioxin-5-yl)amino)-7-(methylamino)pyrazolo[1,5-a]pyrimidin-3-yl)urea]
1000 to 10000 | – | CNC(=O)Nc1cnn2c(NC)cc(Nc3cccc4c3OC(C)(C)O4)nc12 [Compound 116, 1-(5-((2,2-dimethylbenzo[d][1,3]dioxol-4-yl)amino)-7-(methylamino)pyrazolo[1,5-a]pyrimidin-3-yl)-3-methylurea]
1000 to 10000 | – | CNC(=O)Nc1cnn2c(NC)cc(-c3cn(C)c4ncccc34)nc12 [Compound 74, 1-methyl-3-(5-(1-methyl-1H-pyrrolo[2,3-b]pyridin-3-yl)-7-(methylamino)pyrazolo[1,5-a]pyrimidin-3-yl)urea]
< 1000 | – | [2H]C([2H])([2H])Nc1cc(Nc2cccc3c2OCCO3)nc2c(NC(=O)NC)cnn12 [Compound 13, 1-(5-((2,3-dihydrobenzo[b][1,4]dioxin-5-yl)amino)-7-((methyl-d3)amino)pyrazolo[1,5-a]pyrimidin-3-yl)-3-methylurea]
1000 to 10000 | – | CNC(=O)Nc1cnn2c(NC)cc(Nc3cccnc3OC3CCOCC3)nc12 [Compound 94, 1-methyl-3-(7-(methylamino)-5-((2-((tetrahydro-2H-pyran-4-yl)oxy)pyridin-3-yl)amino)pyrazolo[1,5-a]pyrimidin-3-yl)urea]
< 1000 | – | CNC(=O)Nc1cnn2c(NC)cc(Nc3cc(Cl)cc4c3OCCO4)nc12 [Compound 77, 1-(5-((7-chloro-2,3-dihydrobenzo[b][1,4]dioxin-5-yl)amino)-7-(methylamino)pyrazolo[1,5-a]pyrimidin-3-yl)-3-methylurea]
< 1000 | – | CNC(=O)Nc1cnn2c(NC)cc(Nc3cc(F)cc4c3OCCO4)nc12 [Compound 65, 1-(5-((7-fluoro-2,3-dihydrobenzo[b][1,4]dioxin-5-yl)amino)-7-(methylamino)pyrazolo[1,5-a]pyrimidin-3-yl)-3-methylurea]
< 1000 | – | CNC(=O)Nc1cnn2c(NC)cc(Nc3cccc4cccnc34)nc12 [Compound 64, 1-methyl-3-(7-(methylamino)-5-(quinolin-8-ylamino)pyrazolo[1,5-a]pyrimidin-3-yl)urea]
< 1000 | – | CNc1cc(-c2cn(C3CCOCC3)c3ncccc23)nc2c(NC(=O)NCC#N)cnn12 [Compound 137, 1-(cyanomethyl)-3-(7-(methylamino)-5-(1-(tetrahydro-2H-pyran-4-yl)-1H-pyrrolo[2,3-b]pyridin-3-yl)pyrazolo[1,5-a]pyrimidin-3-yl)urea]
1000 to 10000 | – | CNc1cc(Nc2cccc3c2OCCO3)nc2c(NC(=O)NC3CS(=O)(=O)C3)cnn12 [Compound 125, 1-(5-((2,3-dihydrobenzo[b][1,4]dioxin-5-yl)amino)-7-(methylamino)pyrazolo[1,5-a]pyrimidin-3-yl)-3-(1,1-dioxidothietan-3-yl)urea]
– | ≥ 10000 | CNc1cc(Nc2c(F)ccc3c2OCCO3)nc2c(NC(=O)NCC#N)cnn12 [Compound 174, 1-(cyanomethyl)-3-(5-((6-fluoro-2,3-dihydrobenzo[b][1,4]dioxin-5-yl)amino)-7-(methylamino)pyrazolo[1,5-a]pyrimidin-3-yl)urea]
1000 to 10000 | – | CNc1cc(Nc2c(F)c(F)cc(F)c2F)nc2c(NC(=O)N[C@@H]3C[C@@H]3F)cnn12 [Compound 38, 1-((1R,2S)-2-fluorocyclopropyl)-3-(7-(methylamino)-5-((2,3,5,6-tetrafluorophenyl)amino)pyrazolo [1,5-a]pyrimidin-3-yl)urea]
1000 to 10000 | – | CNC(=O)Nc1cnn2c(NC)cc(Nc3ccnc4c3OCCO4)nc12 [Compound 92, 1-(5-((2,3-dihydro-[1,4]dioxino[2,3-b]pyridin-8-yl)amino)-7-(methylamino)pyrazolo[1,5-a]pyrimidin-3-yl)-3-methylurea]
< 1000 | – | CNc1cc(Nc2cccc3occc23)nc2c(NC(=O)NCC#N)cnn12 [Compound 131, 1-(5-(benzofuran-4-ylamino)-7-(methylamino)pyrazolo[1,5-a]pyrimidin-3-yl)-3-(cyanomethyl)urea]
1000 to 10000 | – | CNC(=O)Nc1cnn2c(NC)cc(Nc3cccc(Cl)c3OC)nc12 [Compound 63, 1-(5-((3-chloro-2-methoxyphenyl)amino)-7-(methylamino)pyrazolo[1,5-a]pyrimidin-3-yl)-3-methylurea]
1000 to 10000 | – | CNC(=O)Nc1cnn2c(NC)cc(-c3cn(C4COC4)c4ncccc34)nc12 [Compound 86, 1-methyl-3-(7-(methylamino)-5-(1-(oxetan-3-yl)-1H-pyrrolo[2,3-b]pyridin-3-yl)pyrazolo[1,5-a]pyrimidin-3-yl)urea]
< 1000 | – | CNc1cc(Nc2cccc3c2OCCO3)nc2c(NC(=O)NCCC(F)F)cnn12 [Compound 179, 1-(3,3-difluoropropyl)-3-(5-((2,3-dihydrobenzo[b][1,4]dioxin-5-yl)amino)-7-(methylamino)pyrazolo[1,5-a]pyrimidin-3-yl)urea]
< 1000 | – | CNC(=O)Nc1cnn2c(NC)cc(Nc3cccc4occc34)nc12 [Compound 104, 1-(5-(benzofuran-4-ylamino)-7-(methylamino)pyrazolo[1,5-a]pyrimidin-3-yl)-3-methylurea]
< 1000 | – | [2H]C([2H])([2H])NC(=O)Nc1cnn2c(NC)cc(Nc3cccc4c3OCCO4)nc12 [Compound 144, 1-(5-((2,3-dihydrobenzo[b][1,4]dioxin-5-yl)amino)-7-(methylamino)pyrazolo[1,5-a]pyrimidin-3-yl)-3-(methyl-d3)urea]
< 1000 | – | CNc1cc(Nc2cccc3c2OCCO3)nc2c(NC(N)=O)cnn12 [Compound 10, 1-(5-((2,3-dihydrobenzo[b][1,4]dioxin-5-yl)amino)-7-(methylamino)pyrazolo[1,5-a]pyrimidin-3-yl)urea]
1000 to 10000 | – | CNC(=O)Nc1cnn2c(NC)cc(Nc3cccc4c3OC(F)(F)O4)nc12 [Compound 115, 1-(5-((2,2-difluorobenzo[d][1,3]dioxol-4-yl)amino)-7-(methylamino)pyrazolo[1,5-a]pyrimidin-3-yl)-3-methylurea]
1000 to 10000 | – | CNC(=O)Nc1cnn2c(NC)cc(Nc3c(F)cccc3F)nc12 [Compound 90, 1-(5-((2,6-difluorophenyl)amino)-7-(methylamino)pyrazolo[1,5-a]pyrimidin-3-yl)-3-methylurea]
≥ 10000 | – | CNc1c(F)c(Nc2cccc3c2OCCO3)nc2c(NC(=O)N[C@@H]3C[C@@H]3F)cnn12 [Compound 55, 1-(5-((2,3-dihydrobenzo[b][1,4]dioxin-5-yl)amino)-6-fluoro-7-(methylamino)pyrazolo[1,5-a]pyrimidin-3-yl)-3-((1R,2S)-2-fluorocyclopropyl)urea]
< 1000 | – | CNc1cc(Nc2cc(F)cc3c2OCCO3)nc2c(NC(=O)NCCOC)cnn12 [Compound 113, 1-(5-((7-fluoro-2,3-dihydrobenzo[b][1,4]dioxin-5-yl)amino)-7-(methylamino)pyrazolo[1,5-a]pyrimidin-3-yl)-3-(2-methoxyethyl)urea]
< 1000 | – | CNc1cc(Nc2cccc3c2OCCO3)nc2c(NC(=O)NCC(F)(F)F)cnn12 [Compound 99, 1-(5-((2,3-dihydrobenzo[b][1,4]dioxin-5-yl)amino)-7-(methylamino)pyrazolo[1,5-a]pyrimidin-3-yl)-3-(2,2,2-trifluoroethyl)urea]
